# Data published in ChEMBL document CHEMBL4627309, “Tetra-aryl cyclobutane and stilbenes from the rhizomes of Rheum undulatum and their α-glucosidase inhibitory activity: Biological evaluation, kinetic analysis, and molecular docking simulation” (Bioorg Med Chem Lett, 2020).
# The source made the active and inactive calls. No cut-off for these calls is given here.
# Organism: Homo sapiens
# Assay: Mixed inhibition of alpha-glucosidase (unknown origin) using p-NPG as substrate by Lineweaver-Burk plot analysis
row,Compound,inhibition
1,COc1ccc(/C=C/c2cc(O)cc(O)c2)cc1O,Active

# Biological target: not listed separately
# Assay: Inhibition of alpha-glucosidase (unknown origin) using p-NPG as substrate by Dixon plot analysis
# Parameters: species or system Homo sapiens
row,Compound,Ki [µM]
1,COc1ccc(/C=C/c2cc(O)cc(O)c2)cc1O,15.3

# Biological target: not listed separately
# Assay: Inhibition of alpha-glucosidase (unknown origin) using p-NPG as substrate by spectrophotometric analysis
# Parameters: species or system Homo sapiens
row,Compound,IC50 [µM]
1,C[C@H]1O[C@H](O[C@H]2[C@H](O)[C@@H](O)[C@@H](O[C@H]3[C@H](O)[C@@H](O)C(O)O[C@@H]3CO)O[C@@H]2CO)[C@H](O)[C@@H](O)[C@@H]1N[C@H]1C=C(CO)[C@@H](O)[C@H](O)[C@H]1O (some centres undefined) [ACARBOSE],127
2,COc1cc(O[C@@H]2O[C@H](CO)[C@@H](O)[C@H](O)[C@H]2O)c2c(O)c(C(C)=O)c(C)cc2c1,> 100
3,COc1ccc(/C=C/c2cc(O)cc(O[C@@H]3O[C@H](COC(=O)c4ccc(O)cc4)[C@@H](O)[C@H](O)[C@H]3O)c2)cc1,> 100
4,Cc1cc(O)c2c(c1)C(=O)c1cccc(O[C@@H]3O[C@H](CO)[C@@H](O)[C@H](O)[C@H]3O)c1C2=O [PULMATIN],> 100
5,COc1ccc([C@@H]2[C@@H](c3cc(O)cc(O)c3)[C@@H](c3cc(O)cc(O)c3)[C@@H]2c2ccc(OC)c(O)c2)cc1O,80.1
6,COc1cc(O[C@@H]2O[C@H](CO)[C@@H](O)[C@H](O)[C@H]2O)c2c(c1)C(=O)C(C)=C(C(C)=O)C2=O,> 100
7,OC[C@H]1O[C@@H](Oc2cc(O)cc(/C=C/c3ccc(O)cc3)c2)[C@H](O)[C@@H](O)[C@@H]1O [PICEID],> 100
8,COc1ccc(/C=C\c2cc(O)cc(O[C@@H]3O[C@H](COC(=O)/C=C/c4ccc(O)cc4)[C@@H](O)[C@H](O)[C@H]3O)c2)cc1,> 100
9,COc1ccc(/C=C/c2cc(O)cc(O[C@@H]3O[C@H](COC(C)=O)[C@@H](O)[C@H](O)[C@H]3O)c2)cc1O,> 100
10,COc1ccc(/C=C/c2cc(O)cc(O)c2)cc1O,15.4
11,COc1ccc(/C=C/c2cc(O)cc(O[C@@H]3O[C@H](CO)[C@@H](O)[C@H](O)[C@H]3O)c2)cc1O [RHAPONTIN],> 100
12,Cc1cc(O[C@@H]2O[C@H](CO)[C@@H](O)[C@H](O)[C@H]2O)c2c(c1)C(=O)c1cccc(O)c1C2=O [CHRYSOPHANEIN],> 100
